In ChEMBL document CHEMBL3046000, “Design and synthesis of 1-(benzothiazol-5-yl)-1H-1,2,4-triazol-5-ones as protoporphyrinogen oxidase inhibitors” (Bioorg Med Chem, 2013) one finds inhibition of growth and Ki data, which are given here for 15 compounds.

Assay [1] relates to Chenopodium album. As to the kind of experiment: Post-emergence herbicidal activity against Chenopodium album seedlings assessed as plant growth inhibition at 150 g ai/ha measured 15 days after compound treatment under greenhouse conditions. The settings on record: 360 h, read-out: GI. It is filed as functional.
Assay [2] deals with Amaranthus retroflexus. As to the kind of experiment: Post emergence herbicidal activity against Amaranthus retroflexus seedlings assessed as plant growth inhibition at 150 g ai/ha measured 15 days after compound treatment under greenhouse conditions. It counts as functional. The conditions noted are these: 360 h, read-out: GI.
Assay [3] deals with Brassica juncea. As to the kind of experiment: Post-emergence herbicidal activity against Brassica juncea seedlings assessed as plant growth inhibition at 150 g ai/ha measured 15 days after compound treatment under greenhouse conditions. It counts as functional. The settings on record: 360 h, read-out: GI.
For assay [4], the system named is Setaria faberi. As to the kind of experiment: Post-emergence herbicidal activity against Setaria faberi (Giant Foxtail) seedlings assessed as plant growth inhibition at 150 g ai/ha measured 15 days after compound treatment under greenhouse conditions. It counts as functional. The settings on record: 360 h, read-out: GI.
In assay [5] the test system is Digitaria sanguinalis. As to the kind of experiment: Post-emergence herbicidal activity against Digitaria sanguinalis (hairy crabgrass) seedlings assessed as plant growth inhibition at 150 g ai/ha measured 15 days after compound treatment under greenhouse conditions. It is filed as functional. The settings on record: 360 h, read-out: GI.
In assay [6] the test system is Echinochloa crus-galli. Nature of the assay: Post emergence herbicidal activity against Echinochloa crus-galli (barnyard grass) seedlings assessed as plant growth inhibition at 150 g ai/ha measured 15 days after compound treatment under greenhouse conditions. It is filed as functional. The settings on record: 360 h, read-out: GI.
In assay [7] the target is T1, Protoporphyrinogen oxidase, chloroplastic (Nicotiana tabacum, UniProt O24163).
T1 sequence (O24163 whole entry): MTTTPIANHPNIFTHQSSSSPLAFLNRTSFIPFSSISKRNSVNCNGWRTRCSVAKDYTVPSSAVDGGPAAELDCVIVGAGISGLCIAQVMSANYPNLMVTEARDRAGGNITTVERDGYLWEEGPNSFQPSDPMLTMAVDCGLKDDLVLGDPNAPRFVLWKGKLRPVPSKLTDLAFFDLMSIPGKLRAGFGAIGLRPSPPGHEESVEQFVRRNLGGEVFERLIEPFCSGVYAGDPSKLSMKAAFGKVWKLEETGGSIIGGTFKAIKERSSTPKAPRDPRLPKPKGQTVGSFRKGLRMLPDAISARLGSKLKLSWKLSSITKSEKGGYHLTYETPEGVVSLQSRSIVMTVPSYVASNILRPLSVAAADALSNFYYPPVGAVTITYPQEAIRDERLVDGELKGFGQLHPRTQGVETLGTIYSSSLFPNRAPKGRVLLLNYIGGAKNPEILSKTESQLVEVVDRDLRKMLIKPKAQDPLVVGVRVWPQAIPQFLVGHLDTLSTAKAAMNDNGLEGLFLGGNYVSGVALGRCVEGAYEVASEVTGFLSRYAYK
As to the kind of experiment: Inhibition of Nicotiana tabacum (tobacco) recombinant PPO assessed as protoporphyrin IX formation at room temperature by fluorimetric assay.

Assay [8] concerns Chenopodium album. Nature of the assay: Post-emergence herbicidal activity against Chenopodium album seedlings assessed as plant growth inhibition at 75 g ai/ha measured 15 days after compound treatment under greenhouse conditions. It counts as functional. The settings on record: 360 h, read-out: GI.
Assay [9] deals with Chenopodium album. Nature of the assay: Post-emergence herbicidal activity against Chenopodium album seedlings assessed as plant growth inhibition at 37.5 g ai/ha measured 15 days after compound treatment under greenhouse conditions. It counts as functional. The settings on record: 360 h, read-out: GI.
Assay [10] relates to Amaranthus retroflexus. As to the kind of experiment: Post emergence herbicidal activity against Amaranthus retroflexus seedlings assessed as plant growth inhibition at 75 g ai/ha measured 15 days after compound treatment under greenhouse conditions. It counts as functional. The conditions noted are these: 360 h, read-out: GI.
For assay [11], the system named is Amaranthus retroflexus. Nature of the assay: Post emergence herbicidal activity against Amaranthus retroflexus seedlings assessed as plant growth inhibition at 37.5 g ai/ha measured 15 days after compound treatment under greenhouse conditions. It is filed as functional. The settings on record: 360 h, read-out: GI.
In assay [12] the test system is Brassica juncea. Nature of the assay: Post-emergence herbicidal activity against Brassica juncea seedlings assessed as plant growth inhibition at 75 g ai/ha measured 15 days after compound treatment under greenhouse conditions. It counts as functional. The settings on record: 360 h, read-out: GI.
In assay [13] the test system is Brassica juncea. As to the kind of experiment: Post-emergence herbicidal activity against Brassica juncea seedlings assessed as plant growth inhibition at 37.5 g ai/ha measured 15 days after compound treatment under greenhouse conditions. It counts as functional. The conditions noted are these: 360 h, read-out: GI.
In assay [14] the test system is Setaria faberi. As to the kind of experiment: Post-emergence herbicidal activity against Setaria faberi (Giant Foxtail) seedlings assessed as plant growth inhibition at 75 g ai/ha measured 15 days after compound treatment under greenhouse conditions. It counts as functional. The conditions noted are these: 360 h, read-out: GI.
In assay [15] the test system is Setaria faberi. Nature of the assay: Post-emergence herbicidal activity against Setaria faberi (Giant Foxtail) seedlings assessed as plant growth inhibition at 37.5 g ai/ha measured 15 days after compound treatment under greenhouse conditions. It counts as functional. The conditions noted are these: 360 h, read-out: GI.
Assay [16] relates to Digitaria sanguinalis. As to the kind of experiment: Post-emergence herbicidal activity against Digitaria sanguinalis (hairy crabgrass) seedlings assessed as plant growth inhibition at 75 g ai/ha measured 15 days after compound treatment under greenhouse conditions. It counts as functional. The conditions noted are these: 360 h, read-out: GI.
Assay [17] has as its system Digitaria sanguinalis. As to the kind of experiment: Post-emergence herbicidal activity against Digitaria sanguinalis (hairy crabgrass) seedlings assessed as plant growth inhibition at 37.5 g ai/ha measured 15 days after compound treatment under greenhouse conditions. It is filed as functional. The conditions noted are these: 360 h, read-out: GI.
The test system of assay [18] is Echinochloa crus-galli. As to the kind of experiment: Post emergence herbicidal activity against Echinochloa crus-galli (barnyard grass) seedlings assessed as plant growth inhibition at 75 g ai/ha measured 15 days after compound treatment under greenhouse conditions. It counts as functional. The conditions noted are these: 360 h, read-out: GI.
Assay [19] deals with Echinochloa crus-galli. As to the kind of experiment: Post emergence herbicidal activity against Echinochloa crus-galli (barnyard grass) seedlings assessed as plant growth inhibition at 37.5 g ai/ha measured 15 days after compound treatment under greenhouse conditions. It counts as functional. The conditions noted are these: 360 h, read-out: GI.

For the compound `C=CCSc1nc2cc(-n3nc(C)n(C(F)F)c3=O)c(Br)cc2s1`, the inhibition of growth at 150 g/ha in assay [1] was 50%; in assay [2] it was 60%; in [3], 50%; in [4] it was 60%; in assay [5], below 50%; in assay [6], below 50%. The Ki in [7] came out at 12800 nM.

`Cc1nn(-c2cc3nc(SCC(=O)O)sc3cc2F)c(=O)n1C(F)F`: the inhibition of growth at 75 g/ha in assay [8] was 80%; in assay [10] it was at least 90%; in assay [12], 80%; in assay [14], 50%; in assay [16] it was below 50%; in assay [18] it was 50%. Also, the inhibition of growth at 37.5 g/ha was 80% in assay [9]; at least 90% in [11]; below 50% in assay [13]; 50% in assay [15]; below 50% in assay [17]; 50% in assay [19]. Also, the inhibition of growth at 150 g/ha in assay [1], in assay [2], in [3], in assay [4], in [5] and in assay [6] was at least 90% throughout. In addition, in assay [7], the Ki was found to be 1520 nM.

For `CSc1nc2cc(-n3nc(C)n(C(F)F)c3=O)c(Cl)cc2s1`, the inhibition of growth at 150 g/ha was 50% in assay [1]; 50% in [2]; 60% in assay [3]; below 50% in [4]; 50% in [5]; below 50% in assay [6]. For the same compound, the Ki in [7] was 13900 nM.

`CCCSc1nc2cc(-n3nc(C)n(C(F)F)c3=O)c(Cl)cc2s1`: the inhibition of growth at 150 g/ha in assay [1] was 50%; in assay [2], 60%; in assay [3] it was at least 90%; in [4] it was below 50%; in assay [5], below 50%; in assay [6], below 50%. Moreover, in [7], the Ki is 2010 nM.

As to `C=CCSc1nc2cc(-n3nc(C)n(C(F)F)c3=O)c(Cl)cc2s1`, the inhibition of growth at 150 g/ha in [1] was below 50%; in [2], 60%; in assay [3], 60%; in assay [4], 60%; in assay [5], below 50%; in assay [6], 60%. Also, the inhibition constant (Ki) in [7] amounted to 3130 nM.

Regarding `CCCCSc1nc2cc(-n3nc(C)n(C(F)F)c3=O)c(Cl)cc2s1`, the inhibition of growth at 150 g/ha in assay [1] was below 50%; in [2] it was below 50%; in assay [3], 50%; in assay [4], below 50%; in [5], below 50%; in [6] it was below 50%. In [7], the inhibition constant (Ki) was determined as 2970 nM.

Take `COC(=O)Sc1nc2cc(-n3nc(C)n(C(F)F)c3=O)c(Cl)cc2s1`: the inhibition of growth at 150 g/ha in assay [1], in assay [2], in [3], in assay [4], in assay [5] and in [6] was below 50% each time.

On to `CCOC(=O)Sc1nc2cc(-n3nc(C)n(C(F)F)c3=O)c(Cl)cc2s1`, for which the inhibition of growth at 150 g/ha in assay [1], in [2], in [3], in assay [4], in [5] and in assay [6] was below 50% in each case.

Turning to `CCOC(=O)C(C)Sc1nc2cc(-n3nc(C)n(C(F)F)c3=O)c(Cl)cc2s1` (configuration not stated), the inhibition of growth at 150 g/ha was 60% in assay [1]; at least 90% in assay [2]; at least 90% in assay [3]; 80% in assay [4]; 80% in assay [5]; 80% in [6]. In addition, the Ki in [7] amounted to 3390 nM.

In the case of `CCOC(=O)CSc1nc2cc(-n3nc(C)n(C(F)F)c3=O)c(Cl)cc2s1`, the inhibition of growth at 150 g/ha in [1] was below 50%; in [2], 80%; in [3], at least 90%; in assay [4], 80%; in assay [5], at least 90%; in assay [6], at least 90%. The Ki in assay [7] is 1370 nM.

Take `CSc1nc2cc(-n3nc(C)n(C(F)F)c3=O)c(F)cc2s1`: the inhibition of growth at 150 g/ha in assay [1] was below 50%; in assay [2], 80%; in assay [3] it was below 50%; in [4], 50%; in [5] it was below 50%; in assay [6] it was 50%. In addition, the Ki in assay [7] came to 510 nM.

For `CCCSc1nc2cc(-n3nc(C)n(C(F)F)c3=O)c(F)cc2s1`, the inhibition of growth at 150 g/ha in assay [1] was below 50%; in assay [2], 60%; in assay [3] it was 60%; in [4], 60%; in [5] it was 80%; in [6] it was 60%. For the same compound, the Ki in [7] is 300 nM.

On to `C=CCSc1nc2cc(-n3nc(C)n(C(F)F)c3=O)c(F)cc2s1`, for which the inhibition of growth at 150 g/ha was below 50% in [1]; 50% in assay [2]; below 50% in assay [3]; 60% in assay [4]; 60% in [5]; 80% in [6]. The inhibition constant (Ki) in assay [7] came out at 200 nM.

For the compound `CCCCSc1nc2cc(-n3nc(C)n(C(F)F)c3=O)c(F)cc2s1`, the inhibition of growth at 150 g/ha in [1] is below 50%; in assay [2], 60%; in assay [3], 60%; in assay [4] it was 80%; in assay [5] it was 80%; in assay [6], 60%. In addition, the Ki in [7] was 210 nM.

On to `CCOC(=O)CSc1nc2cc(-n3nc(C)n(C(F)F)c3=O)c(F)cc2s1`, for which the inhibition of growth at 75 g/ha was 80% in [8]; 80% in [10]; 80% in assay [12]; below 50% in assay [14]; 50% in assay [16]; 50% in assay [18]. In addition, the inhibition of growth at 37.5 g/ha was 80% in assay [9]; 80% in assay [11]; 80% in assay [13]; below 50% in [15]; below 50% in [17]; below 50% in assay [19]. Moreover, the inhibition of growth at 150 g/ha in assay [1] was 80%; in assay [2] it was 60%; in [3], at least 90%; in assay [4], at least 90%; in assay [5], at least 90%; in assay [6] it was at least 90%. For the same compound, the Ki in assay [7] came out at 60 nM.
